Assay results reported in patent US9228015B2, “Nogo receptor antagonists and methods of increasing neurite outgrowth” (Biogen Idec MA Inc., priority 2006, dated 2016).

How the values were obtained:
[1] = tested on: chick dorsal root ganglion neurons, myelin-induced neurite outgrowth inhibition; experiment: Neurite outgrowth of embryonic day 13 chick DRG neurons on myelin (Example 29); assay type: cell-based; conditions: 8 μM NgR(310)ecto-Fc; MP 10 μg/nl as printed
Experimental: In investigating combined treatment with methyprednisolone (MP) and NgR(310)ecto-Fc for spinal cord injury (SCI), we sought to verify that these reagents have independent mechanisms of action. Briefly, myelin was dried overnight in poly-L-lysine-precoated plates (Becton Dickinson, Bedford, Mass., USA) at 80 or 400 ng/well (2.5 and 12.7 ng/mm^2, respectively). Wells were then coated with 10 µg/ml laminin (Calbiochem, La Jolla, Calif., USA) for 1 hour at foom temperature (22-24 C). Embryonic day 13 chick dorsal root ganglion neurons were dissociated and plated for 6-8 hours as previously described (GrandPre et al., 2000; Fournier et al., 2001). Neurons were treated with 8 μM NgR(310)ecto-Fc in the presence or absence of 10 μg/nl MP (Pharmacia, Kalamazoo, Mich., USA) for the entire outgrowth period. Neurons were then fixed and stained with βIII tubulin antibody (Covance, Princeton, N.J., USA) and neurite outgrowth was quantified using an automated cellular imaging and analysis system (Axon Instrument, Union City, Calif.; USA). Neurite outgrowth per cell was normalized to the average of duplicate control wells for each experiment (n=3). […] These in vitro data support the hypothesis that MP and NgR(310)ecto-Fc will enhance SCI recovery in a sequentially effective manner.

[2] = tested on: 7E11; experiment: Epitope mapping: 7E11 binding to protease digest peptides of NgR1; parameters: species or system murine; conditions: trypsin or Asp-N digest, MS analysis
From the text: The 7E11 binding site was further analyzed by testing tryptic peptide digests of sNgR310. […] 7E11 bound only a single tryptic digest peptide, providing additional evidence that 7E11 binds to a single epitope on NgR1. Subsequent mass spectroscopy (MS) and sequence analyses identified the bound peptide to be […] (SEQ ID NO: 26).
The […] peptide (SEQ ID NO: 1) was subjected to further mapping analysis. The peptide was digested with trypsin, which yielded two major fragments, […] (SEQ ID NO: 27) and VVDPTT (SEQ ID NO: 28), and the ability of 7E11 to bind them was tested. […] Within this peptide fraction, detailed MS analysis identified several scrambled peptides that also bound 7E11, including peptides with deamination at Asn115 and Gln117, addition of Alanine at 112 or 113, or addition of Serine at 114 (Table 3).
The […] (SEQ ID NO:1) peptide was also digested with the endoprotease Asp-N and 7E11 binding was tested. Endoprotease Asp-N cleaved the peptide into 3 peptide fragments, L, DLS and […] (SEQ ID NO: 36). Of these products, 7E11 bound the […] (SEQ ID NO:36) peptide. Taken together, the trypsin and Asp-N cleavage data further localize the 7E11 binding epitope to the sequence shared between them, DNAQLR (SEQ ID NO: 37).

[3] = tested on: 7E11; experiment: 7E11 binding to immobilized point-mutant peptides (MaxiSorp plate, serial dilutions of 7E11); parameters: species or system murine; conditions: 7E11 binding to immobilized peptide
From the text: To verify these contact points, several peptides containing point mutations within the […] sequence (SEQ ID NO: 27) were generated and tested for 7E11 binding. The peptides were immobilized on a MaxiSorp™ plate (Nunc™) and serial dilutions of 7E11 were applied. […] The most significant change in EC50 was observed when Arg 119 was mutated to Alanine.

[4] = tested on: NogoA, NogoB, NogoC, MAG and OM-gp binding to Nogo receptor-1; experiment: Soluble Nogo receptors block ligand binding to Nogo receptor-1
[5] = biological target: T1, MAG + sNogoR344-Fc (Rattus norvegicus, UniProt Q99M75, A303T/C287S/C43R/E284G/T53A); experiment: ELISA: inhibition of MAG binding to sNogoR344-Fc
T1 construct: amino acid residues 26-344 of rat Nogo receptor-1; made in house; CHO (DG44) is described only for sNogoR310-Fc
T1 sequence (Q99M75 26-344 C43R/T53A/E284G/C287S/A303T): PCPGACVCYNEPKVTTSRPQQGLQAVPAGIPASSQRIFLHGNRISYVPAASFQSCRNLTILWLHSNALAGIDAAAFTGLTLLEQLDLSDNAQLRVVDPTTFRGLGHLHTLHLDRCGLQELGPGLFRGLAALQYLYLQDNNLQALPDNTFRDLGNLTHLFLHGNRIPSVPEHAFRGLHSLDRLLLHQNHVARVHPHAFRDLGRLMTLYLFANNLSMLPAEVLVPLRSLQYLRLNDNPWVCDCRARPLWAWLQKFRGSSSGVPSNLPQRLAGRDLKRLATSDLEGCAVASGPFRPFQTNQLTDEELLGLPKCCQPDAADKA
Experimental: (§1) 0.5 μg of a soluble Nogo receptor-1 fusion protein comprising amino acid residues 26-344 of rat Nogo receptor-1 and the hinge and Fc region of the rat IgG1 molecule (sNogoR344-Fc) produced as described below was immobilized on […] of protein-A- or wheatgerm agglutinin-conjugated SPA beads (Amersham Pharmacia Biotech) for 2 hours at 25° C. SPA beads coupled with Fc-sNogoR-1, anti-Nogo receptor-1 mAb and 1 μl ^125I-Nogo66 (Amersham, 2000 Ci/mmol, 1 nM) in […] of the HEPES-buffered incubation medium (10 mM HEPES, pH 7.4, 0.1% bovine serum albumin, 0.1% ovalbumin, 2 mM MgCl2, 2 mM CaCl2 and protease inhibitors) was added to each sample well. After 16 hours, radioactivity was measured in quadruplicate samples using a TopCount® (Packard). IC50 values were calculated from a curve-fit analysis (FIG. 3) (PRISM, GraphPad Software, NJ). In some experiments, we also used AP-ligand conjugates (e.g. AP-Nogo66) and detected binding by monitoring alkaline phosphatase activity. We also assayed the ability of the mAbs to block binding of the ligands MAG-Fc and AP-OM-gp to Nogo receptor-1.
(§2) Monoclonal antibodies 7E11, 5B10, 1H2, 3G5 and 2F7 all inhibited binding of Nogo66, MAG and OM-gp to sNogoR344-Fc. The calculated IC50 for Nogo66 for 7E11 and 1H2 were 400 nM and 60 nM, respectively. The data from ELISAs monitoring mAb-mediated inhibition of binding of the three ligands to Nogo receptor-1 are summarized in Table 6.
(§3) The percent displacement is shown at 30 nM antibody and the EC50 for certain mAbs determined from curve-fit analysis as described. “-” indicates no detectable activity and “ND” indicates not determined.
(§4) We also performed ELISA binding assays using the Fab-phage 141)5.

[6] = biological target: T2, Nogo66 + sNogoR344-Fc (Rattus norvegicus, UniProt Q99M75, A303T/C287S/C43R/E284G/T53A); experiment: ELISA: inhibition of Nogo66 binding to sNogoR344-Fc
T2 construct: amino acid residues 26-344 of rat Nogo receptor-1; made in house
T2 sequence (Q99M75 26-344 C43R/T53A/E284G/C287S/A303T): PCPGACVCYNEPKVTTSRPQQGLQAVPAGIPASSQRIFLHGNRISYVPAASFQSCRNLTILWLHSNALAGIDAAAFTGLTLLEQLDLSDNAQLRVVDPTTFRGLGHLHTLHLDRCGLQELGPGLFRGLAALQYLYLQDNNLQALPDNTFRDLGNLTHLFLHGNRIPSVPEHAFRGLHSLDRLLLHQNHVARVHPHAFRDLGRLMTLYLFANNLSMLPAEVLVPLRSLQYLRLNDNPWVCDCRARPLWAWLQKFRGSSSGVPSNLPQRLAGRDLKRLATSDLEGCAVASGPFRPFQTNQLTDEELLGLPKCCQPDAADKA
Experimental: as §1, §2, §3, §4

[7] = biological target: T3, OM-gp + sNogoR344-Fc (Rattus norvegicus, UniProt Q99M75, A303T/C287S/C43R/E284G/T53A); experiment: ELISA: inhibition of OM-gp binding to sNogoR344-Fc
T3 construct: amino acid residues 26-344 of rat Nogo receptor-1; made in house; CHO (DG44) is described only for sNogoR310-Fc
T3 sequence (Q99M75 26-344 C43R/T53A/E284G/C287S/A303T): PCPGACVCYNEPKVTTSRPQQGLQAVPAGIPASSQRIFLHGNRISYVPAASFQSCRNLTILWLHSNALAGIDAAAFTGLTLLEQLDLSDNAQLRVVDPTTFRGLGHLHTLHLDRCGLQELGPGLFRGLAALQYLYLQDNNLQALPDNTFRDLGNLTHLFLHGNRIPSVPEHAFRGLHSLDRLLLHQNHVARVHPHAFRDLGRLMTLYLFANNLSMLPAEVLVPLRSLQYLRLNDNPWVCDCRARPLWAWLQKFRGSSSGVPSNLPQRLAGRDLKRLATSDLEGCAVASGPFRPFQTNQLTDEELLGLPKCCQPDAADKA
Experimental: as §1, §2, §3, §4

[8] = biological target: T4, panel of Nogo receptor-1 polypeptides (sNogoR310-Fc, sNogoR344-Fc, p-617, p-618, p-4, p-5) (Rattus norvegicus, UniProt Q99M75); experiment: Antibody specificity ELISA with a panel of Nogo receptor-1 polypeptides; assay type: binding
T4 construct: made in house
From the text: To determine the specificity of the monoclonal and Fab-phage antibodies produced in Examples 1 and 2, we performed an ELISA using a panel of Nogo receptor-1 polypeptides. The panel consisted of sNogoR310-Fc (a fusion protein comprising amino acids 26-310 of rat Nogo receptor-1 and a rat Fc fragment), sNogoR344-Fc (see supra), polypeptide p-617 (SEQ ID NO: 1), polypeptide p-618 (a 19-amino acid polypeptide from the LRR7 region of rat Nogo receptor-1; FIG. 2; SEQ ID NO: 11) and polypeptides p-4 and p-5 (polypeptides from the LRR5 and LRRCT regions of Nogo receptor-1, respectively). Ovalbumin and BSA were used as controls.

[9] = tested on: DRG neurons, myelin-mediated inhibition of neurite outgrowth; experiment: Neurite outgrowth assay, P3-4 rat DRG neurons, myelin mixed with test protein (Example 10); assay type: cell-based; conditions: mixed with CNS myelin, FIGS. 9-11
Experimental: Lab-Tek® culture slides (4 wells) were coated with 0.1 mg/ml poly-D-lysine (Sigma®). CNS myelin alone or mixed with sNogoR310, sNogoR310-Fc fusion protein, mAb 5B10 or control PBS were separately spotted as 3 μl drops. Fluorescent microspheres (Polysciences) were added to the myelin/PBS to allow later identification of the drops (Grandpre et al., Nature 403:439-444 (2000)). Lab-Tek® slides were then rinsed and coated with 10 μg/ml laminin (Gibco™).
Dorsal root ganglions (DRG's) from P3-4 Sprague Dawley rat pups were dissociated with 1 mg/ml collagenase type 1 (Worthington), triturated with fire-polished Pasteur pipettes pre-plated to enrich in neuronal cells and finally plated at 23,000 cells/well on the pre-coated Labtek culture slides. The culture medium was F12 containing 5% heat inactivated donor horse serum, 5% heat inactivated fetal bovine serum and 50 ng/ml mNGF and incubated at 37° C. and 5% CO2 for 6 hours.
Slides were fixed for 20 minutes with 4% paraformaldehyde containing 20% sucrose and stained for the neuronal marker anti beta-III-tubulin (Covance TUJ1) diluted 1:500. As secondary antibody anti-mouse Alexa Fluor® 594 (Molecular Probes) was diluted 1:300 and slides were coverslipped with Gel/Mount™ (Biømeda™). 5× digital images were acquired with OpenLab™ software and analyzed by using the MetaMorph® software for quantification of neurite outgrowth.

Molecule: C[C@H]1C[C@@H]2[C@H]([C@@H](O)C[C@@]3(C)[C@H]2CC[C@]3(O)C(=O)CO)[C@@]2(C)C=CC(=O)C=C12 [MP, methylprednisolone, reference compound]
- effect on neurite outgrowth on a myelin substrate [1]: no effect

Molecule: AAAFTGLTLLEQLDLSDNAQLR (Rattus) [tryptic digest peptide of sNgR310]
- peptide bound by 7E11 [2]: bound

Molecule: DNAQLRVVDPTT (sequence also found in Rattus; listed as Homo Sapiens)
- peptide bound by 7E11 [2]: bound

Molecule: LDLSDNAALRVVDPTT [Q117A]
- increase of EC50 relative to the original peptide [3]: 30 fold

Molecule: LDLSDNAQLHVVDPTT [R119H]
- increase of EC50 relative to the original peptide [3]: 25 fold

Molecule: LDLSDNAQLR (sequence also found in Rattus; listed as Homo Sapiens)
- peptide bound by 7E11 [2]: bound

B1: sNogoR344: soluble Nogo receptor-1 polypeptide, residues 26-344 of SEQ ID NOs: 6 and 8 or 27-344 of SEQ ID NO: 8 (protein, listed as Homo sapiens)
chain: PCPGACVCYNEPKVTTSCPQQGLQAVPVGIPAASQRIFLHGNRISHVPAASFRACRNLTILWLHSNVLARIDAAAFTGLALLEQLDLSDNAQLRSVDPATFHGLGRLHTLHLDRCGLQELGPGLFRGLAALQYLYLQDNALQALPDDTFRDLGNLTHLFLHGNRISSVPERAFRGLHSLDRLLLHQNRVAHVHPHAFRDLGRLMTLYLFANNLSALPTEALAPLRALQYLRLNDNPWVCDCRARPLWAWLQKFRGSSSEVPCSLPQRLAGRDLKRLAANDLQGCAVATGPYHPIWTGRATDEEPLGLPKCCQPDAADKA
- block of binding of NogoA, NogoB, NogoC, MAG and OM-gp to Nogo receptor-1 [4]: block

B2: 5B10: murine monoclonal anti-Nogo receptor-1 antibody, immunogen rat Nogo receptor-1 residues 110-125, ATCC PTA-4588 (antibody, V domains shown)
VH: LQXSGAEIVMPGTAVTMSCKASGYTFTDFWMHWVKQRPGQGLEWIGAIDPSDSYSRINQKFKGKATLTVDESSSTAYMQLSSLTSEDSAVYYCARRITEAGAWFAYWGQGTTVT
VL: MKLPVRLLVLMFWIPASSSDVVMTQTPLSLPVSLGDQASISCRSSQSLVHSNGYTYLHWYLQRPGQSPKLLIYKVSNRFSGVPDRFSGSGSGTDFTLKISRVDAEDLGVYFCSQSTHVPYTFGGGTKLEIKRADAAPTVSISHH
modifications: not fully specified; 5B10 heavy chain; 5B10 light chain
- inhibition of binding of MAG to sNogoR344-Fc [5]: inhibited
- inhibition of binding of Nogo66 to sNogoR344-Fc [6]: inhibited
- inhibition of binding of OM-gp to sNogoR344-Fc [7]: inhibited
- binding to polypeptide p-617 (SEQ ID NO: 1) [8]: specifically bound
- protection of DRG neurons from myelin-mediated inhibition of neurite outgrowth [9]: protected
